Reference: patent US20130084322A1, “DRUG-IMPREGNATED BIODEGRADABLE STENT AND METHODS OF MAKING THE SAME” (Tim Wu, priority 2010, published 2013)
Entries after “also recorded” stand apart in the source; their conditions may differ.

Columns and labels:
[1] = HPLC analysis of paclitaxel in the formed tube/stent (stability to extrusion); assay type: physicochemical; settings: extraction in 50% ethanol and 50% methanol overnight at room temperature; FIG. 2
Experimental: The 10 μl extracting solutions were further analyzed by HPLC (HP16 series 1090, Hewlett-Packard Co. Palo Alto, Calif.). The samples were analyzed on a C18-reverse phase column (HP: 4.6×100 mm RP18) using a mobile phase consisting of 0.005% TFA buffer (0.05 ml Trifluoroacetic acid in 1000 ml acetonitrile) delivered at a flow rate of 1.0 mL/min.

[2] = after releasing from stent; through specific binding to binding proteins; cited from earlier work

Row | Compound | stability of paclitaxel during extrusion (HPLC peaks, pre-extrusion vs stent samples) [1] | retention in blood vessel wall [2]
1 | CC(=O)O[C@H]1C(=O)[C@@]2(C)[C@H]([C@H](OC(=O)c3ccccc3)[C@]3(O)C[C@H](OC(=O)[C@H](O)[C@@H](NC(=O)c4ccccc4)c4ccccc4)C(C)=C1C3(C)C)[C@]1(OC(C)=O)CO[C@@H]1C[C@@H]2O [paclitaxel] | not decomposed during extrusion; also recorded: survived the elevated extrusion temperature and are stable inside the stent strut | –
2 | CO[C@H]1C[C@@H]2CC[C@@H](C)[C@@](O)(O2)C(=O)C(=O)N2CCCC[C@H]2C(=O)O[C@H]([C@H](C)C[C@@H]2CC[C@@H](O)[C@H](OC)C2)CC(=O)[C@H](C)/C=C(\C)[C@@H](O)[C@@H](OC)C(=O)[C@H](C)C[C@H](C)/C=C/C=C/C=C/1C [sirolimus] | – | up to three days
